From patent US12661362B2, “Methods for the prevention and treatment of hearing loss” (Ting Therapeutics LLC, priority 2020, dated 2026)

Columns and labels:
HEI-OC1 cells = test: Caspase-Glo 3/7 assay in HEI-OC1 cells treated with Cisplatin; type: cell-based, mouse
Procedure: Now referring to FIG. 3A, and FIGS. 3D-3E, compounds protect from cisplatin toxicity in the mouse inner ear cell line. House Ear Institute-Organ of Corti 1 (HEI-OC1) cells (House Research Institute) were maintained in high-glucose Dulbecco's modified Eagle medium supplemented with 10% fetal bovine serum (Life Technologies, USA) at 33° C. and 10% CO2 as previously described (Kalinec et al., 2003). Cells were seeded at 8,000 cells/well in 96 well plates and left to attach overnight. Now referring to FIG. 3A, For the drug screening, HEI-OC1 cells were pretreated with 30 drug candidates at concentrations ranging from 2 nM to 40 μM one hour before receiving cisplatin. The cisplatin dose (50 μM) was based on our previously published dose response curve. The cells were co-incubated with cisplatin and drug candidates for an additional 19 hours prior to Caspase-Glo 3/7 assay (Promega, Madison, WI) as previously shown. Additionally, […] kenpaullone-treated cells were used as positive controls to validate our results. The DMSO concentration in drug preparation was adjusted to 0.1% v/v and it was verified that 0.5% DMSO had no effect on the cell death kinetics (Hall et al., 2014). Results of the assay were run in triplicate and normalized to cisplatin-only and media-only controls. The percent caspase activity was used to determine the relative protective effect of each compound. The luminescence detection representing caspase activity in each well was obtained using a Cytation Hybrid Multi-Mode Reader (Biotek, Winooski, VT, USA). The percent protection of the cells was calculated using caspase 3/7 readouts and the following formula: […]
In the following examples, Niclosamide, 5-chloro-N-(2-chloro-4-nitrophenyl)-2-hydroxy-benzamide, with a ≥95% purity was used for all experiments (Cayman Chemical, USA).

ggcsh = test: Expression of nrf2 downstream gene ggcsh in zebrafish; type: in vivo; conditions: 0.002-1.48 μM, 6 hours
Procedure: Additionally to FIGS. 6A-6B, but not shown, 5 dpf zebrafish were incubated for 6 hours with vehicle, niclosamide (2 nM to 1.48 μM) and the nrf2 pathway activator […] (DEM) as a positive control, in order to evaluate the effect of niclosamide on ggcsh, a nrf2 downstream target. Ggcsh was previously validated as a Nrf2 downstream target in zebrafish. (Sheets, 2017). Following incubation, the total RNA was isolated from whole fish and processed to measure the induced expression of nrf2 downstream gene ggcsh. […] Additionally, Nrf2a morpholinos morphlinos were prepared, followed by incubation of the zebrafish morphants with cisplatin and/or niclosamide. Zebrafish eggs were injected with 4.5 ng of scrambled morpholino or nrf2a morpholino (5′-[…] SEQ NO: 1). At 3 dpf non-injected and morphant animals were exposed to vehicle, cisplatin (300 μM), cisplatin+niclosamide 18.3 nM or niclosamide alone for 6 hours. Following 1-hour recovery, animals were fixed and processed for immunohistochemistry. Nrf2a KD was confirmed by analyzing expression of Glutathione S-transferase P1 (gstp1), a downstream target, due to lack of proper antibody to detect Nrf2 protein in zebrafish.

FVB/NJ mice = test: Cisplatin-induced hearing loss in FVB/NJ mice (ABR, DPOAE, wave-1, hair cell count); type: in vivo, mouse
From the text: Now referring to FIGS. 4A-4F Niclosamide attenuates Cisplatin-induced hearing loss in FVB/NJ mice. Mice: Procedures used with mice were approved by the Institutional Animal Care and Use Committee (IACUC) at the Creighton University. For functional assessments including Cisplatin and noise exposure experiments 5 to 7-week-old FVB/NJ mice obtained from Jackson Laboratory (Bar Harbor, ME, USA) were used, with a mix of males and females across experiments. For the Cisplatin and noise studies, FVB/NJ mice were treated with 10 mg/kg Niclosamide, through intraperitoneal (IP) injection. Niclosamide, was dissolved in 1% DMSO in normal saline (0.9% NaCl solution) and vortexed multiple times before injections. Treatment started 24 hours before the Cisplatin or noise-exposure and continued once daily for 3 more days. Cisplatin was injected IP at 30 mg/kg divided into 2 doses per day. Animals were given 1 mL warm sterile normal saline subcutaneously twice a day before and for 7 days after Cisplatin treatment to prevent dehydration.
Now referring to FIG. 4A, ABR tests were performed 2-3 days before Cisplatin exposure, and 5 days post-Cisplatin exposure. The experimental groups included: Cisplatin and 1% DMSO, Cisplatin and Niclosamide, Niclosamide, only, and age-matched controls receiving normal saline. For the noise experiment, auditory tests were performed 2-3 days prior to noise exposure (paradigm described below), at post-exposure day-1 to monitor temporary threshold shift (TTS) and at post-exposure day-14 to monitor permanent threshold shift (PTS). Experimental groups included: noise-exposure and normal saline, noise-exposure and Niclosamide, Niclosamide-only, and age-matched controls. Following the final auditory function measurements, mice were euthanized, and cochleae were collected for morphological assessment. Based on the results of FVB/NJ ABR/DPOAE threshold variances and power analysis, ten FVB/NJ mice per group (5 of each sex) were used in this study.
Now referring to FIG. 4B measurement of the distortion products otoacoustic emission (DPOAE) thresholds at frequencies ranging from 8 to 40 kHz in cisplatin, niclosamide, control, and cisplatin-niclosamide treated-mice.
Now referring to FIG. 4C-4D, mean wave-1 amplitudes at 8, 16, 32, and 40 kHz was measured in the control and Niclosamide-treated mice before Cisplatin injection and at Day 5 post-Cisplatin injection. The ABR wave-1 amplitude represents the summed activity of the cochlear nerve. Amplitudes from the 85 dB SPL stimuli were compared between groups in the baseline ABR measurements using a two-factor ANOVA (group x frequency), and no group differences were detected (P>0.05).
Now referring to FIGS. […], representative samples of the mouse HCs at 32 kHz, the most protected frequency region shown by ABR measurement (FIG. 4E). […] Niclosamide protects NMDA-induced hair cell loss in zebrafish. Application of the N-methyl-d-aspartate (NMDA) to zebrafish neuromast HCs has also been used to mimic glutamate excitotoxicity associated with noise exposure (Katie S. Kindt and Lavinia Sheets, 2018). The results of the HC count following exposure of zebrafish to 300 μM NMDA led to hair-cell loss.

For `O=C(Nc1ccc([N+](=O)[O-])cc1Cl)c1cc(Cl)ccc1O` [Niclosamide, 5-chloro-N-(2-chloro-4-nitrophenyl)-2-hydroxy-benzamide], the “share of the dosage range tested with some level of protection” value (HEI-OC1 cells; 2 nM to 40 μM tested) was “over 80%”, the “protection against Cisplatin damage compared to kenpaullone” value (HEI-OC1 cells; HEI-OC1 cells) was “comparable levels of protection to kenpaullone” and the “protection compared to sodium thiosulfate, ebselen, dexamethasone, N-acetylcysteine” value (HEI-OC1 cells; HEI-OC1 cells) was “better protection than four other benchmark compounds”. The caspase activity (HEI-OC1 cells; at a dosage of ~4.4 μM, Cisplatin 50 μM) was 0%, the “caspase-3/7 activity relative to control cells” value (HEI-OC1 cells; dose of 4.4 μM, Cisplatin 50 μM) was “reduce caspase activity to comparable levels as control cells” and the expression of ggcsh (ggcsh) was “significantly lowered”. The “ABR threshold shifts versus Cisplatin-only mice” value (FVB/NJ mice; 8, 12 and 32 kHz, 10 mg/kg IP, Cisplatin 30 mg/kg) was “significantly reduced ABR threshold shifts”, the “DPOAE threshold shifts versus Cisplatin-only mice” value (FVB/NJ mice; 16 and 32 kHz, 10 mg/kg IP, Day 5 post-Cisplatin) was “significantly reduced DPOAE threshold shifts” and the “HC survival versus Cisplatin group” value (FVB/NJ mice; 30 kHz region) was “more HC survival”. For the same compound, the “outer hair cell quantification, protection against Cisplatin-induced hair cell loss” value (FVB/NJ mice; 32 kHz region, cotreatment) was “full protection” and the “ABR wave-1 amplitudes versus Cisplatin only group” value (FVB/NJ mice; all tested frequencies at 85 dB SPL, Day 5 post-Cisplatin) was “higher amplitudes”.
